This is an account of results in US20060009506A1, “Drugs for the treatment of neoplastic disorders” (Odyssey Thera, Inc., priority 2004, published 2006).

One experiment concerns cancer cells. Nature of the experiment: Antiproliferative activity against cancer cells (cell line not stated). The format is cell-based, human. Particulars: general statement. From the text:
(§1) We first screened compounds derived from the known pharmacopeia and from a selected natural product collection using two types of assays: (a) measurements of post-translational modifications of proteins; (b) measurements of protein-protein interactions. For the purpose of measuring post-translational modifications of proteins, we used immunofluorescence methods combined with phospho-specific antibodies. For the purpose of quantifying and localizing protein complexes we used fluorescence methods based on protein-fragment complementation assays (PCA). ‘Hits’ from the initial screens were then tested for antiproliferative activity in up to 5 different human tumor cell lines. […] For drugs with antiproliferative activity in PC-3 cells, dose-response curves were generated to determine the EC50 for antiproliferative activity and additional tumor cell lines were tested to determine the breadth of activity. Methods for assay development, validation, screening, and testing of antiproliferative activity are described below.
Cells were maintained in various media as follows: A549, LoVo and PC-3 (Ham's F12K medium with 2 mM L-glutamine and 1.5 g/L sodium bicarbonate), MIA PaCa-2 (Dulbecco's modified Eagle's medium with 4 mM L-glutamine and 4.5 g/L glucose), U87-MG (MEM+Earle's BSS). Medium for each cell line was supplemented with 10% FBS and […] Penecillin/Streptomycin. All cells were grown in incubators set at 37° C., 5% CO2. Thiazolyl Blue Tetrazolium Bromide (MTT) based proliferation assays were performed to assess the anti-proliferative activities of the compounds on these cells. Cells were seeded in 96 well plates at a density of 750 cells/well 24 hours prior to compound treatment. The cells were incubated with varying concentrations of compounds for 120 hours. Compound concentrations range from 0.03 to 100 microM (half log increments) except for alpha-Tomatine (0.001-100 microM, half log increments), Neriifolin (0.0002-100 microM) and Peruvoside (0.01-100 microM). Drug treatment was performed in 5 replicate wells. Background absorbance was established by wells containing medium but no cells. Vehicle (DMSO) only was used as control. MTT (Sigma-Aldrich, St. Louis, Mo.) was added to each well at a final concentration of 0.5 mg/ml. Following a 2 hour incubation at 37° C., medium in the wells was replaced with 0.15 ml DMSO. The plates were agitated for 15 min using a microtiter plate shaker. […] Mean absorbance values were calculated from 5 replicate wells of each drug treatment following subtraction of background absorbance from blank samples and plotted as a percentage of control.

The next experiment concerns A549 cells. Nature of the experiment: MTT proliferation assay, non-small cell lung carcinoma A549. It is filed as cell-based, Human. To be noted: Tumor Cell: NSCLC (A549), concentrations tested in microM.
Text: as §1
(§2) Cells were maintained in various media as follows: A549, LoVo and PC-3 (Ham's F12K medium with 2 mM L-glutamine and 1.5 g/L sodium bicarbonate), MIA PaCa-2 (Dulbecco's modified Eagle's medium with 4 mM L-glutamine and 4.5 g/L glucose), U87-MG (MEM+Earle's BSS). Medium for each cell line was supplemented with 10% FBS and […] Penecillin/Streptomycin. All cells were grown in incubators set at 37° C., 5% CO2. Thiazolyl Blue Tetrazolium Bromide (MTT) based proliferation assays were performed to assess the anti-proliferative activities of the compounds on these cells. Cells were seeded in 96 well plates at a density of 750 cells/well 24 hours prior to compound treatment. The cells were incubated with varying concentrations of compounds for 120 hours. […] Drug treatment was performed in 5 replicate wells. Background absorbance was established by wells containing medium but no cells. Vehicle (DMSO) only was used as control. MTT (Sigma-Aldrich, St. Louis, Mo.) was added to each well at a final concentration of 0.5 mg/ml. Following a 2 hour incubation at 37° C., medium in the wells was replaced with 0.15 ml DMSO. The plates were agitated for 15 min using a microtiter plate shaker.

The next experiment deals with MIA PaCa-2 cells. The experiment in a line: MTT proliferation assay, pancreatic carcinoma MIA PaCa-2. Particulars: Homo sapiens, Tumor Cell: Pancreatic (MIA PaCa-2), concentrations tested in microM. The format is cell-based.
Text: as §1, §2

Another experiment concerns cancer pathways. Nature of the experiment: Screening of cancer pathways in human cells (PCA and phospho-immunofluorescence). It is filed as cell-based. Particulars: cancer pathway in which the drug was active; screened at 10 micromolar, HEK293 cells.
Text: as §1
Immunofluorescence was performed on drug-treated cells using antibodies that specifically recognize phosphorylated forms of key signaling proteins. HEK293T cells were seeded in black-walled, poly-lysine coated 96-well plates (Greiner) at a density of 30,000/well. After 24 hours, cells in duplicate wells were treated with drugs. 100 ng/ml hEGF added to the cells during the last 5 min of drug treatment. The cells were rinsed once with PBS and fixed with 4% formaldehyde for 10 min. The cells were subsequently permeabilized with 0.25% Triton X-100 in PBS and incubated with 3% BSA for 30 min to block non-specific antibody binding. Each of the 4 sets of identically treated cells were then incubated with rabbit antibodies against phosphorylated CREB (Ser133), hsp27 (Ser82), pERK (T202/Y204) (Cell Signaling), or BSA in PBS. The cells were rinsed with PBS and incubated with Alexa488 conjugated goat anti-rabbit secondary antibody (Molecular Probes). Cell nuclei were stained with Hoechst33342 (Molecular Probes). Images were acquired using Discovery-1 High Content Imaging System (Molecular Devices). Background fluorescence due to nonspecific binding by the secondary antibody was established with the use of cells that were incubated with BSA/PBS and without primary antibodies. Fluorescence intensities were quantitated using Image J-based image analysis algorithm as described below.
Reporter fragments for PCA were generated by oligonucleotide synthesis (Blue Heron Biotechnology, Bothell, Wash.). First, oligonucleotides coding for polypeptide fragments YFP[1]and YFP[2] […] Next, PCR mutagenesis was used to generate the mutant fragments IFP[1] and IFP[2]. The IFP[1] fragment corresponds to YFP[1]-(F46L, F64L, M153T) and the IFP[2] fragment corresponds to YFP[2]-(V163A, S175G). […] The YFP[1], YFP[2], IFP[1] and IFP[2] fragments were amplified by PCR to incorporate restriction sites and a linker sequence, described below, in configurations that would allow fusion of a gene of interest to either the 5′- or 3′-end of each reporter fragment. The reporter-linker fragment cassettes were subcloned into a mammalian expression vector (pcDNA3.1Z, Invitrogen) that had been modified to incorporate the replication origin (oriP) of the Epstein Barr virus (EBV). […] Additionally, these vectors still retain the SV40 origin, allowing for episomal expression in cell lines expressing the SV40 large T antigen (e.g. HEK293T, Jurkat or COS). […] PCA fusion constructs were prepared for a large number of proteins known to participate in cellular pathways (Table 1 and Table 2). The full coding sequence for each gene of interest was amplified by PCR from a sequence-verified full-length cDNA.

As for `Cc1c(N(C)C)c(=O)n(-c2ccccc2)n1C` [4-dimethylaminoantipyrine], in the experiment on cancer cells, the “Antiproliferative activity against cancer cells” value (from here on “Antiproliferative activity”) is listed as “substantial antiproliferative activity”.

As usually defined, the IC50 is the concentration needed to halve the response being measured. High values mean weaker potency, low ones greater potency. In the case of `CCCSc1ccc2nc(NC(=O)OC)[nH]c2c1` [Albendazole], the IC50 turned out to be 0.28 µM with A549 cells (Homo sapiens, 120 hours) and 0.14 µM with MIA PaCa-2 cells (120 hours). Also, in the experiment with cancer pathways, the “Pathway Activity” value is given as “invasion/metastasis”. Besides, the “Antiproliferative activity” value with cancer cells is reported as “substantial antiproliferative activity”.

Take `CC(C)COCC(CN(Cc1ccccc1)c1ccccc1)N1CCCC1` (stereo not shown) [Bepridil]: the IC50 turned out to be 4.74 µM in the experiment on A549 cells (Homo sapiens, A549, 120 h) and 1.58 µM with MIA PaCa-2 cells (MIA PaCa-2, 120 h). Also, the “Pathway Activity” value in the experiment with cancer pathways is recorded as “invasion/metastasis”. Also, the “Antiproliferative activity” value in the experiment on cancer cells is “substantial antiproliferative activity”.

As to `COc1c2ccoc2cc2oc(=O)ccc12` [Bergaptene], the IC50 turned out to be 56.4 µM in the experiment on A549 cells (Homo sapiens, A549, 120 h) and 58.3 µM with MIA PaCa-2 cells (MIA PaCa-2, 120 h). In the experiment on cancer pathways, the “Pathway Activity” value is “proliferation; invasion/”. Moreover, in the experiment on cancer cells, the “Antiproliferative activity” value is listed as “substantial antiproliferative activity”.

For `CCN(CC)CCOc1ccc(C(=C(Cl)c2ccccc2)c2ccccc2)cc1` [Clomiphene], the “Pathway Activity” value with cancer pathways is “proliferation”. For the same compound, the “Antiproliferative activity” value in the experiment on cancer cells is “substantial antiproliferative activity”.

Turning to `CNCCCN1c2ccccc2CCc2ccccc21` [Desipramine], the IC50 with A549 cells (Homo sapiens, A549, 120 h) was 11.9 µM; with MIA PaCa-2 cells (MIA PaCa-2, 120 h), 1.93 µM. The “Pathway Activity” value with cancer pathways is “proliferation”. Further, the “Antiproliferative activity” value in the experiment with cancer cells is given as “substantial antiproliferative activity”.

Turning to `Oc1ccc(Cl)cc1Cc1cc(Cl)ccc1O` [Dichlorophene], the IC50 in the experiment with A549 cells (Homo sapiens, A549, 120 h) was found to be 9.83 µM; in the experiment on MIA PaCa-2 cells (MIA PaCa-2, 120 h), 25.8 µM. Further, the “Pathway Activity” value in the experiment on cancer pathways was “proliferation”. The “Antiproliferative activity” value in the experiment with cancer cells was “substantial antiproliferative activity”.

With `O=C(CCCN1CC=C(n2c(=O)[nH]c3ccccc32)CC1)c1ccc(F)cc1` [Droperidol], the IC50 with A549 cells (Homo sapiens, A549, 120 h) came out at 29.4 µM; with MIA PaCa-2 cells (MIA PaCa-2, 120 h), 13.9 µM. Besides, the “Pathway Activity” value with cancer pathways was “invasion/metastasis”. For the same compound, the “Antiproliferative activity” value with cancer cells is on record as “substantial antiproliferative activity”.

As to `Fc1ccc(C(c2ccc(F)cc2)N2CCN(C/C=C/c3ccccc3)CC2)cc1` [Flunarizine], in the experiment on cancer pathways, the “Pathway Activity” value was “invasion/metastasis”. Moreover, in the experiment with cancer cells, the “Antiproliferative activity” value is “substantial antiproliferative activity”.

Turning to `COC(=O)Nc1nc2ccc(C(=O)c3ccccc3)cc2[nH]1` [Mebendazole], the IC50 worked out at 0.18 µM with A549 cells (Homo sapiens, A549, 120 h) and 0.28 µM in the experiment on A549 cells (120 hours). Moreover, the “Pathway Activity” value in the experiment on cancer pathways is given as “invasion/metastasis”. For the same compound, the “Antiproliferative activity” value in the experiment on cancer cells was “substantial antiproliferative activity”.

Turning to `CCN(CCCCOC(=O)c1ccc(OC)c(OC)c1)C(C)Cc1ccc(OC)cc1` (stereo not shown) [Mebeverine], the “Pathway Activity” value in the experiment with cancer pathways was “invasion/metastasis”. Besides, in the experiment on cancer cells, the “Antiproliferative activity” value was “substantial antiproliferative activity”.

`C=C1c2c(Cl)ccc(O)c2C(=O)C2=C(O)[C@]3(O)C(=O)C(C(N)=O)=C(O)[C@@H](N(C)C)[C@@H]3[C@@H](O)[C@H]12` [Meclocycline]: the IC50 turned out to be 18.8 µM in the experiment on A549 cells (Homo sapiens, A549, 120 h) and 68.2 µM in the experiment with MIA PaCa-2 cells (MIA PaCa-2, 120 h).

`CN1C[C@H](CNC(=O)OCc2ccccc2)C[C@@H]2c3cccc4c3c(cn4C)C[C@H]21` [Melergoline]: the IC50 in the experiment on A549 cells (Homo sapiens, A549, 120 h) amounted to 5.7 µM; in the experiment on MIA PaCa-2 cells (MIA PaCa-2, 120 h), 20.7 µM. Besides, the “Pathway Activity” value in the experiment with cancer pathways is listed as “invasion/metastasis”. In addition, the “Antiproliferative activity” value in the experiment with cancer cells is reported as “substantial antiproliferative activity”.

In the case of `CO[C@H]1[C@H](O)[C@H](O[C@H]2CC[C@@]3(C)[C@H](CC[C@@H]4[C@@H]3CC[C@]3(C)[C@@H](C5=CC(=O)OC5)CC[C@]43O)C2)O[C@@H](C)[C@@H]1O` [Neriifolin], the IC50 in the experiment on A549 cells (Homo sapiens, 120 hours) was 0.006 µM; in the experiment with MIA PaCa-2 cells (120 hours), 0.003 µM. Moreover, the “Pathway Activity” value in the experiment with cancer pathways is listed as “invasion/metastasis”. Moreover, the “Antiproliferative activity” value with cancer cells is recorded as “substantial antiproliferative activity”.

On to `COC(=O)C1=C(C)NC(C)=C(C(=O)OCCN(C)Cc2ccccc2)C1c1cccc([N+](=O)[O-])c1` (stereo not shown) [Nicardipine], for which the IC50 worked out at 21.9 µM in the experiment on A549 cells (Homo sapiens, A549, 120 h) and 20.4 µM in the experiment on MIA PaCa-2 cells (MIA PaCa-2, 120 h).

For the compound `Cc1c(NC(C)C)c(=O)n(-c2ccccc2)n1C` [Ramifenazone], in the experiment with cancer pathways, the “Pathway Activity” value was “invasion/metastasis”. The “Antiproliferative activity” value in the experiment on cancer cells is reported as “substantial antiproliferative activity”.

With `C[n+]1cc2c3c(ccc2c2ccc4cc5c(cc4c21)OCO5)OCO3` [Sanguinarine], the IC50 with A549 cells (Homo sapiens, 120 hours) amounted to 2.23 µM; in the experiment with MIA PaCa-2 cells (120 hours), 1.93 µM.

For `CN[C@H]1CC[C@@H](c2ccc(Cl)c(Cl)c2)c2ccccc21` [Sertraline], the “Pathway Activity” value in the experiment on cancer pathways is on record as “apoptosis”. Further, the “Antiproliferative activity” value in the experiment with cancer cells is on record as “substantial antiproliferative activity”.

Take `Cc1c(N(C)CS(=O)(=O)[O-])c(=O)n(-c2ccccc2)n1C.[Na+]` [dipyrone]: the “Antiproliferative activity” value with cancer cells was “substantial antiproliferative activity”.

With `COC(=O)[C@H]1[C@H]2C[C@@H]3c4[nH]c5cc(OC)ccc5c4CCN3C[C@H]2C[C@@H](OC(=O)c2cc(OC)c(OC)c(OC)c2)[C@@H]1OC` [reserpine, Reserpine], in the experiment on cancer cells, the “Antiproliferative activity” value is “substantial antiproliferative activity”.
